From patent US8168659B2, “1, 5-diphenyl-3-benzylamino-1, 5-dihydropyrrolidin-2-one as CB1 receptor modulators” (Eli Lilly and Company, priority 2006, dated 2012) come the findings set out here.

Data set [1] has as its target T1, hCB1 (Homo sapiens, UniProt P21554). Put plainly: hCB1 SPA GTPγ35S Sf9 membranes, antagonist. In kind it is biochemical. On the set-up: purchased Applied Cell Sciences, Gaithersburg, Md; PerkinElmer Life Sciences, Boston, Mass; host or cells: Sf9 insect cells (recombinant expression), membranes. Particulars: hCB1 SPA GTPγ35S Sf9 Mem 22.7 ug protein/well Antagonist; read-out: Inverse Agonist Potency CB1 (Kb). Here is the method:
(§1) Antibody-Capture SPA GTP-γ-^35S Binding
(§2) Test exemplified compounds. Measure GTP-γ^35S binding in a 96 well format using a modified antibody capture technique previously described (DeLapp et al. 1999). […] Perform antagonist dose responses in the presence of a saturating dose of full agonist (methanandamide). Add a mixture containing 0.27% Nonidet P40 detergent (Roche, Indianapolis, Ind.), anti-Gi antibody (final dilution of 1:300; Covance, Princeton, N.J.), and 1.25 mg anti-rabbit antibody scintillation proximity assay beads (GE Healthcare, Piscataway, N.J.) and seal the plates and incubate for an additional 3 hours. Centrifuge the plates at 700×g for 10 minutes using a Beckman GS-6R centrifuge and count for 1 minute per well using a Wallac MicroBeta TriLux scintillation counter (PerkinElmer, Boston, Mass.).
(§3) To analyze data, first subtract background from all wells. Determine percent agonist efficacy by normalizing agonist/inverse agonist dose response data to a full agonist (methanandamide) response. Calculating antagonist percent inhibition data by normalizing to results generated with a saturating concentration of methanandamide. Analyze the data using a 4-parameter logistic reduced fit with Activity Base and XLFit3 (IDBS, Emeryville, Calif.). Determine Kb values using a modification of the Cheng-Prusoff relationship: Kb=IC50/(1+[agonist]/EC50) where IC50 is determined from a four parameter fit of displacement curves, [agonist]=EC50 of full agonist, and EC50 is determined from a four parameter fit of a full agonist concentration response curve (Cheng and Prusoff 1973). Calculate mean Kb values as a mean of at least three independent determinations±standard error of the mean (SEM).

The nature of the next data set: Bioavailability rat. It is filed as in vivo. An excerpt:
(§4) Methods for accessing bioavailabilty are well appreciated in the art. One such reference is Medicinal Research Reviews Vol 21 No. 5 382-396 (2001).

Data set [2] has as its target T2, Human CB2 (Homo sapiens, UniProt P34972).
T2 construct: purchased Applied Cell Sciences, Gaithersburg, Md; PerkinElmer Life Sciences, Boston, Mass; host or cells: Sf9 insect cells (recombinant expression), membranes
Nature of the data set: Antibody-capture SPA GTP-γ-35S binding, antagonist/inverse agonist, Sf9 cell membranes. It is filed as biochemical. The procedure: as §1
(§5) Test exemplified compounds. Measure GTP-γ^35S binding in a 96 well format using a modified antibody capture technique previously described (DeLapp et al. 1999). Briefly incubate, CHO or Sf9 cell membranes expressing CB1 or CB2, respectively (Applied Cell Sciences, Gaithersburg, Md.; PerkinElmer Life Sciences, Boston, Mass.); prepare as previously described (DeLapp et al., 1999), exemplified compounds and […] GTP-γ-^35S (PerkinElmer Life Sciences, Boston, Mass.) for 30 minutes (incubate all at room temperature) in GTP-binding assay buffer (20 mM Hepes, 100 mM NaCl, 5 mM MgCl2, pH 7.4). Perform antagonist dose responses in the presence of a saturating dose of full agonist (methanandamide). Add a mixture containing 0.27% Nonidet P40 detergent (Roche, Indianapolis, Ind.), anti-Gi antibody (final dilution of 1:300; Covance, Princeton, N.J.), and 1.25 mg anti-rabbit antibody scintillation proximity assay beads (GE Healthcare, Piscataway, N.J.) and seal the plates and incubate for an additional 3 hours. Centrifuge the plates at 700×g for 10 minutes using a Beckman GS-6R centrifuge and count for 1 minute per well using a Wallac MicroBeta TriLux scintillation counter (PerkinElmer, Boston, Mass.).
as §3

The nature of the next data set: Bioavailability dog. It is filed as in vivo.
Source text: as §4

The target in data set [3] is T2, Human CB2. Nature of the data set: Agonist GTP-binding, Sf9 membranes. In kind it is biochemical. The procedure:
as §1
Test exemplified compounds. Measure GTP-γ^35S binding in a 96 well format using a modified antibody capture technique previously described (DeLapp et al. 1999). Briefly incubate, CHO or Sf9 cell membranes expressing CB1 or CB2, respectively (Applied Cell Sciences, Gaithersburg, Md.; PerkinElmer Life Sciences, Boston, Mass.); prepare as previously described (DeLapp et al., 1999), exemplified compounds and […] GTP-γ-^35S (PerkinElmer Life Sciences, Boston, Mass.) for 30 minutes (incubate all at room temperature) in GTP-binding assay buffer (20 mM Hepes, 100 mM NaCl, 5 mM MgCl2, pH 7.4). Perform antagonist dose responses in the presence of a saturating dose of full agonist (methanandamide). […]
To analyze data, first subtract background from all wells. […] Determine Kb values using a modification of the Cheng-Prusoff relationship: Kb=IC50/(1+[agonist]/EC50) where IC50 is determined from a four parameter fit of displacement curves, [agonist]=EC50 of full agonist, and EC50 is determined from a four parameter fit of a full agonist concentration response curve (Cheng and Prusoff 1973). […]

The target in another data set is T3, Rat CB1 (Rattus norvegicus, UniProt P20272).
T3 construct: purchased Applied Cell Sciences, Gaithersburg, Md; PerkinElmer Life Sciences, Boston, Mass; host or cells: CHO cells (recombinant expression), membranes
T3 sequence (P20272 whole entry): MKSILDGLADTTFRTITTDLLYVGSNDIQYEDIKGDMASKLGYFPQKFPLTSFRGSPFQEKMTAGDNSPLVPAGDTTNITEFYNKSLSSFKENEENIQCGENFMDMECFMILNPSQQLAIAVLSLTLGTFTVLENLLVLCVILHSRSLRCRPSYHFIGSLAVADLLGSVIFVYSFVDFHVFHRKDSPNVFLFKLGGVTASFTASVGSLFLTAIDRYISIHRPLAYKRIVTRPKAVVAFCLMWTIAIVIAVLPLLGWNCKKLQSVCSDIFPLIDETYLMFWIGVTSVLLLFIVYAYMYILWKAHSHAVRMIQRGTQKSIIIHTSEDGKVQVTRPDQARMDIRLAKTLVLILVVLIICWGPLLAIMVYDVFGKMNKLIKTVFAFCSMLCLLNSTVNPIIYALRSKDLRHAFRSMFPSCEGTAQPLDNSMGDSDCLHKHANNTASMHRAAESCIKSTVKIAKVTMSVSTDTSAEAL
Put plainly: Antibody-capture SPA GTP-γ-35S binding, antagonist/inverse agonist, CHO cell membranes. It is filed as biochemical. The procedure: as §1, §5, §3
For orientation: Binding of GTPγS marks nucleotide exchange on a G protein.

The target of data set [4] is T1, hCB1. The description is as above. It is filed as biochemical. The procedure:
as §1, §5, §3

A further data set concerns NIH-Swiss mice. Put plainly: Forced swim test (FST). It is filed as in vivo. Particulars: minimum effective dose, decrease in immobility time. The procedure:
Receive NIH male Swiss mice (Harlan Sprague-Dawley, weigh 20-25 g) 7-10 days prior to testing. House 12 mice/cage. Test animals that weigh 25-30 g. On the day of test, bring animals to the testing room at least 1 hr prior to dosing, when doing starts, 6-8 min. intervals between each dosing with mouse receiving either vehicle or exemplified compounds by p.o., and then put it into a clean cage afterwards (4 mice/cage). Depending on pretreatment time, start the test accordingly.
Mice FST: Place NIH-Swiss mice in clear plastic cylinders (diameter: 10 cm; height: 25 cm) filled to 6 cm with 22-25° C. water for six min. Record the duration of immobility during the last 4 min. of the six-minute trial. A mouse is regarded as immobile when floating motionless or making only those movements necessary to keep its head above the water.
Copy the data-immobility (second) into JMP data sheet, and analyze by ANOVA-Dunnett's test. Record the minimum effective dose (MED) as the lowest dose of compound at which statistically significant decrease in immobility time is observed versus a vehicle control.

For data set [5], the target named is T1, hCB1. Nature of the data set: Agonist GTP-binding, Sf9 membranes. It is filed as biochemical. On the set-up: purchased Applied Cell Sciences, Gaithersburg, Md; PerkinElmer Life Sciences, Boston, Mass; host or cells: Sf9 insect cells (recombinant expression), membranes. Here is the method: as §1, §2, §3
Setting [6] is: Antibody-capture SPA GTP-γ-35S binding, human CB2, read-out: Inverse Agonist Potency CB2 (Kb).

Structures can show the parent of a compound that is named as a salt. Where two headings read alike, the source gives them in different places.

T2 sequence (P34972 whole entry): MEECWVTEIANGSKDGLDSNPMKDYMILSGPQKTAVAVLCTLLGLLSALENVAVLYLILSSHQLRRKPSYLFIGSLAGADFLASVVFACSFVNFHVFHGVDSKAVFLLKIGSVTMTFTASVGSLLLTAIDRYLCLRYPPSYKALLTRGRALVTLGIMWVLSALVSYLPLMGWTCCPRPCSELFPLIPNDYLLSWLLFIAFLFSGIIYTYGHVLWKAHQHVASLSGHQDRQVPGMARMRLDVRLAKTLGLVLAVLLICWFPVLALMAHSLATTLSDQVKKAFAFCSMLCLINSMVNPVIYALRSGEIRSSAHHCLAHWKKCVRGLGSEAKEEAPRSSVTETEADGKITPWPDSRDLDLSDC
T1 sequence (P21554 whole entry): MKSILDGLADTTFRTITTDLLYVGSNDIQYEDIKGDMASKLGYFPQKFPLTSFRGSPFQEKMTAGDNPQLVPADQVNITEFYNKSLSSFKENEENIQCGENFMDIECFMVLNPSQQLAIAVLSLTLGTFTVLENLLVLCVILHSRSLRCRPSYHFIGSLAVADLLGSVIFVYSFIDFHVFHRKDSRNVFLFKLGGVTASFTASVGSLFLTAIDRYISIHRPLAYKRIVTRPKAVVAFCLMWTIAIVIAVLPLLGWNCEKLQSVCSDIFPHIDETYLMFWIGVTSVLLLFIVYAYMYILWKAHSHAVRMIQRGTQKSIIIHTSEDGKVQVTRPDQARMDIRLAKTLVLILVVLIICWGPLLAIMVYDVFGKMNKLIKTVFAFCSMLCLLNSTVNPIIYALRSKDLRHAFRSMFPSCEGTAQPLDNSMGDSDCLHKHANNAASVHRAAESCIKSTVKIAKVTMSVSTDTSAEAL

As usually defined, the Kb is the equilibrium dissociation constant of an antagonist, usually derived from a functional assay. `CC(C)(N[C@@H]1C[C@H](c2cccc(OC(F)(F)C(F)F)c2)N(c2ccc(Cl)cc2)C1=O)c1ccc(C(F)(F)F)nc1` [Example 41, (3R,5R)-3-[1-Methyl-1-(6-trifluoromethyl-pyridin-3-yl)-ethylamino]-5-[3-(1,1,2,2-tetrafluoro-ethoxy)-phenyl]-1-(4-chloro-phenyl)-pyrrolidin-2-one]: the Kb at hCB1 [1] was 0.91 nM; on Human CB2 [2] (setting [6]) it was above 14200 nM. Besides, the “Bioavail. Rat” value in the data set “Bioavailability rat” is recorded as 36%. Further, in “Bioavailability dog”, the “Bioavail. Dog” value is 47%.
Consider `CC(C)(N[C@@H]1C[C@H](c2cccc(OC(F)(F)C(F)F)c2)N(c2ccc(C(F)(F)F)cc2)C1=O)c1ccc(C(F)(F)F)nc1` [Example 40, (3R,5R)-3-[1-Methyl-1-(6-trifluoromethyl-pyridin-3-yl)-ethylamino]-5-[3-(1,1,2,2-tetrafluoro-ethoxy)-phenyl]-1-(4-trifluoromethyl-phenyl)-pyrrolidin-2-one], for which the Kb was 0.71 nM at hCB1 [1] and above 6900 nM on Human CB2 [2] (setting [6]). For the same compound, in the data set “Bioavailability rat”, the “Bioavail. Rat” value turned out to be 77%. The “Bioavail. Dog” value in the data set “Bioavailability dog” is 38%.
Turning to `CC(C)(N[C@H]1C[C@@H](c2ccccc2)N(c2ccc(OC(F)(F)F)cc2)C1=O)c1ccc(C(F)(F)F)nc1` [Example 4, (3S,5S)-3-[1-Methyl-1-(6-trifluoromethyl-pyridin-3-yl)-ethylamino]-5-phenyl-1-(4-trifluoromethoxy-phenyl)-pyrrolidin-2-one tosylate], the Kb at hCB1 [1] is 107 nM; on Human CB2 [2] (setting [6]), above 7230 nM.
For the compound `Cc1cccc([C@H]2C[C@@H](NC(C)(C)c3ccc(C(F)(F)F)nc3)C(=O)N2c2ccc(OC(F)(F)F)cc2)c1` [Example 1, (3R,5R)-3-[1-Methyl-1-(6-trifluoromethyl-pyridin-3-yl)-ethylamino]-5-(m-tolyl)-1-(4-trifluoromethoxy-phenyl)-pyrrolidin-2-one tosylate], the Kb at hCB1 [1] was 0.91 nM; at Human CB2 [2] (setting [6]) it was 390 nM. In addition, the “Bioavail. Rat” value in the data set “Bioavailability rat” is given as 7%. Besides, the “Bioavail. Dog” value in “Bioavailability dog” is reported as 36%.
Turning to `CC(C)(N[C@H]1C[C@H](c2ccccc2)N(c2ccc(OC(F)(F)F)cc2)C1=O)c1ccc(C(F)(F)F)nc1` [Example 44, (3S,5R)-3-[1-Methyl-1-(6-trifluoromethyl-pyridin-3-yl)-ethylamino]-5-phenyl-1-(4-trifluoromethoxy-phenyl)-pyrrolidin-2-one], the figures for the Kb at hCB1 [1] and on Human CB2 [2] (setting [6]) were 72.7 nM and 4030 nM, respectively.
In the same order, the values of `CC(F)(F)c1cccc([C@H]2C[C@@H](NC(C)(C)c3ccc(C(F)(F)F)nc3)C(=O)N2c2ccc(OC(F)(F)F)cc2)c1` [Example 32B, (3R,5R)-3-[1-Methyl-1-(6-trifluoromethyl-pyridin-3-yl)-ethyl-amino]-5-[3-(1,1-difluoro-ethyl)-phenyl]-1-(4-trifluoromethoxy-phenyl)-pyrrolidin-2-one] are 2.38 nM and above 4000 nM.
For orientation: EC50 means the concentration giving half of the maximal effect. As to `CC(C)(N[C@@H]1C[C@H](c2ccccc2)N(c2ccc(OC(F)(F)F)cc2)C1=O)c1ccc(C(F)(F)F)nc1.Cc1ccc(S(=O)(=O)O)cc1` [Example 49, (3R,5R)-3-[1-Methyl-1-(6-trifluoromethyl-pyridin-3-yl)-ethylamino]-5-phenyl-1-(4-trifluoromethoxy-phenyl)-pyrrolidin-2-one tosylate], the “Agonist Efficacy %” value on Human CB2 [3] (normalized to full agonist methanandamide) was 0%; at hCB1 [5] (Human CB1, Sf9 membranes, normalized to full agonist methanandamide) it was −38.3 ± 1.0%. Further, the EC50 on Human CB2 [3] (read-out: Agonist Potency EC50) was above 10 µM; on hCB1 [5] (Human CB1, Sf9 membranes, read-out: Agonist Potency EC50) it was 0.81 ± 0.19 nM. Also, the Kb at Rat CB1 (Rat CB1 (CHO cells), GTP binding, mean ± SEM, read-out: Inverse Agonist Potency [Kb (nM)]) came out at 0.264 ± 0.02 nM; at hCB1 [4] (Human CB1 (CHO cells), GTP binding, mean ± SEM, read-out: Inverse Agonist Potency [Kb (nM)]), 0.226 ± 0.01 nM; on hCB1 [1], 2.6 nM; on Human CB2 [2] (Human CB2 (Sf9 cells), GTP binding, mean ± SEM, read-out: Inverse Agonist Potency [Kb (nM)]) it was 587 ± 191 nM. Besides, the “CB1 antagonism/inverse agonism, in words” value on Rat CB1 (rat CB1 receptors) and at hCB1 [4] (human CB1 receptors) was “potent” each time. Further, in “Bioavailability rat”, the “Bioavail. Rat” value is 36%. Besides, on Human CB2 [2] (human CB2 receptors), the “CB2 antagonism, in words” value is given as “low antagonism”. Also, the “Bioavail. Dog” value in the data set “Bioavailability dog” is on record as 40%. For the same compound, the “Forced Swim Test (MED, mg/kg, po)” value with NIH-Swiss mice worked out at 3 mg/kg. The “agonist efficacy at the human CB1 receptor (inverse agonism), in words” value on hCB1 [5] (human CB1, basal constitutive activity) is “less than zero”.
